Laboratory results: paper PMC9080042, “Biochemical and kinetic characterization of laccase and manganese peroxidase from novel Klebsiella pneumoniae strains and their application in bioethanol production” (RSC Advances, 2018)

How the values were obtained:
Assay in all cases: ABTS oxidation at […] nm, Lineweaver-Burk
Format in all cases: biochemical, Klebsiella pneumoniae
[1] = test system: T1, laccase (NITW715076_1); conditions: 0.1 M citrate buffer pH 5.0, optimum temperature (50 °C); methods call the enzyme partially purified; read-out: Laccase / K m
T1 construct: gene lac; native extracellular enzyme from culture supernatant; ammonium sulphate, dialysis, DEAE-sepharose; 66 kDa by SDS-PAGE; gene not identified

[2] = test system: T2, laccase (NITW715076_2); conditions: 0.1 M citrate buffer pH 5.0, optimum temperature (60 °C); methods call the enzyme partially purified; read-out: Laccase / K m
T2 construct: gene lac; native extracellular enzyme from culture supernatant; ammonium sulphate, dialysis, DEAE-sepharose; 66 kDa by SDS-PAGE; gene not identified

[3] = test system: T3, laccase (NITW715076); conditions: 0.1 M citrate buffer pH 5.0, optimum temperature (50 °C); methods call the enzyme partially purified; read-out: Laccase / K m
T3 construct: gene lac; native extracellular enzyme from culture supernatant; ammonium sulphate, dialysis, DEAE-sepharose; 66 kDa by SDS-PAGE; gene not identified

Structure (SMILES): CCn1c(=NN=c2sc3cc(S(=O)(=O)O)ccc3n2CC)sc2cc(S(=O)(=O)O)ccc21 [ABTS, 2,2′-azino-bis(3-ethylbenzothiazoline)-6-sulfonic acid]
- Km [1]: 3970 µM
- Km [2]: 380 µM
- Km [3]: 467 µM
